Assay results from patent US4022889A, “Therapeutic compositions of antibiotic U-44,590 and methods for using the same” (The Upjohn Company, priority 1975, dated 1977).
≈ marks a conversion by molar mass, not a printed value. Read-outs that look alike come from different tables or passages of the source.

Tests used:
Salmonella flexneri = assay: In vivo testing in infected mice; conditions: IP challenge 40 LD50, read-out: Activity (CD50)
From the text: (§1) In vivo testing of U-44,590 in mice infected with selected microorganisms is as follows: […]

Proteus vulgaris [1] = assay: In vivo testing in infected mice
From the text: as §1

Escherichia coli [2] = assay: In vivo testing in infected mice; conditions: IP challenge 79 LD50, read-out: Activity (CD50)
From the text: as §1

[3] = system: Streptococcus hemolyticus; assay: In vivo testing in infected mice; conditions: Streptococcus pyogenes, Oral route, IP challenge 100 LD50, read-out: Activity (CD50)
From the text: as §1

Proteus mirabilis [4] = assay: In vivo testing in infected mice; conditions: IP challenge 1259 LD50, read-out: Activity (CD50)
From the text: as §1

Solubilities = assay type: physicochemical
[5] = system: Gram-negative and Gram-positive bacteria; assay: Antibacterial activity (statement); conditions: for example, Streptococcus hemolyticus, Klebsiella, Salmonella Sp., Serratia marcescens, Pasteurella multocida, Hemophilus Sp., Proteus morgani, Proteus rettgeri
Diplococcus pneumoniae = assay: Antibacterial activity, standard agar dilution test; assay type: cell-based; conditions: Streptococcus pneumoniae, 16 h, 1 strain, Brain Heart Infusion, 37° C., 16-18 hours, read-out: Inhibition
Protocol: (§2) The above antibacterial spectrum was obtained by a standard agar dilution test with the following media and conditions:
(§3) Difco Brain Heart Infusion Medium was used for all test bacteria except P. multocida and Hemophilus species which were grown in Difco Blood Agar Base with 5% defibrinated rabbit blood. All were grown aerobically at 37° C. (except Hemophilus species, grown anaerobically) 16-18 hours. Inocula were grown overnite (16-18 hours) at 37° C. and used to seed agar at the rate of 0.025 ml. of 10^^-3 dilution (approximately 2500 to 25,000 bacteria per drop of inoculum).

Proteus vulgaris [6] = assay: as above; assay type: cell-based; conditions: 16 h, 3 strains, Brain Heart Infusion, 37° C., 16-18 hours, read-out: Inhibition
Protocol: as §2, §3

Pseudomonas aeruginosa = assay: as above; assay type: cell-based; conditions: 16 h, 5 strains, Brain Heart Infusion, 37° C., 16-18 hours, read-out: Inhibition
Protocol: as §2, §3

Staphylococcus aureus = assay: as above; assay type: cell-based; conditions: 16 h, 1 strain, Brain Heart Infusion, 37° C., 16-18 hours, read-out: Inhibition
Protocol: as §2, §3

Serratia marcescens = assay: as above; assay type: cell-based; conditions: 16 h, 2 strains, Brain Heart Infusion, 37° C., 16-18 hours, read-out: Inhibition
Protocol: as §2, §3

[7] = system: Streptococcus hemolyticus; assay: as above; assay type: cell-based
Protocol: as §2, §3

Proteus morgani = assay: as above; assay type: cell-based; conditions: 16 h, 3 strains, Brain Heart Infusion, 37° C., 16-18 hours, read-out: Inhibition
Protocol: as §2, §3

Proteus mirabilis [8] = assay: as above; assay type: cell-based; conditions: 16 h, 3 strains, Brain Heart Infusion, 37° C., 16-18 hours, read-out: Inhibition
Protocol: as §2, §3

Pasteurella multocida = assay: as above; assay type: cell-based; conditions: 16 h, 1 strain, Blood Agar Base with 5% defibrinated rabbit blood, 37° C., 16-18 hours, read-out: Inhibition
Protocol: as §2, §3

Herpes virus = assay: Activity against DNA viruses (statement); conditions: for example, the Herpes virus
Herpes simplex virus = assay: Antiviral activity in mice inoculated intravenously with Herpes simplex virus; assay type: in vivo; conditions: 400, 200 and 100 mg./kg./dose subcutaneously, four times daily, days 0-4; 40 LD50 virus intravenously
Protocol: The following is an example of the antiviral activity of antibiotic U-44,590. The antibiotic is administered subcutaneously to mice which are inoculated intravenously with Herpes simplex virus. Treatment is initiated 2 hours prior to viral infection and is followed by treatment four times daily for five consecutive days. A detailed account of the materials and methods and results are as follows:
Male mice, weighing approximately 20 gm. each, are divided into 4 groups of 20. Group 1 is treated with saline, Group 2 with 400 mg./kg./dose (mkd) U-44,590, Group 3 with 200 mkd U-44,590, and Group 4 with 100 mkd U-44,590. The antibiotic is dissolved in saline and administered subcutaneously in the nape of the neck at 8 a.m., 12 noon, 4 p.m., and 8 p.m. on days 0, 1, 2, 3, and 4. Herpes virus at 10^^-1.5 dilution, 0.05 ml/mouse, equivalent to a viral dose of 40 LD50 s, is inoculated into the tail vein at 10 a.m. on day 0. Paralysis and death are recorded daily.
Hind leg paralysis usually preceded death by 1-2 days. All mice died that became paralyzed. Death pattern of the 4 groups, as shown in the curves which follow, illustrates the dose response obtained.

Escherichia coli [9] = assay: Antibacterial activity (statement)

## CN1CN([C@H]2C[C@H](O)[C@@H](CO)O2)C(=O)NC1=O [U-44,590, 1(2-deoxy-β-D-erythro-pentofuranosyl)-5,6-dihydro-5-methyl-s-triazine-2,4(1H,3H)-dione]
Salmonella flexneri; Oral route
  ED50: 62.5 mg/kg
Salmonella flexneri; sc, Subcutaneous route
  ED50: 38 mg/kg
Proteus vulgaris [1]; po, IP challenge 79 LD50, read-out: Activity (CD50)
  ED50: < 62.5 mg/kg
Proteus vulgaris [1]; po, IP challenge 150 LD50 (line without organism name below Proteus vulgaris), read-out: Activity (CD50)
  ED50: ~30 mg/kg
Proteus vulgaris [1]; sc, Subcutaneous route, IP challenge 79 LD50, read-out: Activity (CD50)
  ED50: 100 mg/kg
Escherichia coli [2]; Oral route
  ED50: 218 mg/kg
Escherichia coli [2]; sc, Subcutaneous route
  ED50: 141 mg/kg
[3]
  ED50: > 160 mg/kg
Proteus mirabilis [4]; Oral route
  ED50: 101 mg/kg
Proteus mirabilis [4]; sc, Subcutaneous route
  ED50: 152 mg/kg
Solubilities; in Me2 CO, EtOAc, hydrocarbons, CH2 Cl2 and CHCl3
  Solubility: relatively insoluble
Solubilities; in water, and lower alcohols, for example, methanol and ethanol
  Solubility: Highly soluble
[5]
  Effect on growth of bacteria: adversely affecting the growth of Gram-negative and Gram-positive bacteria
Diplococcus pneumoniae
  MIC: 500 µg/mL (≈ 2040 µM)
Proteus vulgaris [6]
  MIC: > 1000 µg/mL
Pseudomonas aeruginosa
  MIC: > 1000 µg/mL
Staphylococcus aureus
  MIC: > 1000 µg/mL
Serratia marcescens
  MIC: 125 µg/mL (≈ 510 µM)
[7]
  Activity against Streptococcus hemolyticus: active against Streptococcus hemolyticus
[7]; Streptococcus pyogenes, 16 h, Streptococcus hemolyticus, 1 strain, Brain Heart Infusion, 37° C., 16-18 hours, read-out: Inhibition
  MIC: 15.2 µg/mL (≈ 62 µM)
Proteus morgani
  MIC: 62.5 to 250 µg/mL (≈ 255 to 1020 µM)
Proteus mirabilis [8]
  MIC: > 1000 µg/mL
Pasteurella multocida
  MIC: 125 µg/mL (≈ 510 µM)
Herpes virus
  Activity against DNA viruses: active against DNA viruses
Herpes simplex virus
  Death pattern, statistical analysis of the results at day 11: all 3 treated groups are significantly different from the control group (1)
Escherichia coli [9]
  Activity against Escherichia coli: active against Escherichia coil
